Measured values from PMC12023841, “Unlocking the Gates: A Novel Diagnostic Molecule for Quantifying Efflux Levels in Gram‐Positive Bacteria” (Advanced Healthcare Materials, 2025).
Values joined by “and” are separate entries in the source; they are usually repeats but may differ in a detail not shown here. Equal values may be shown once. “Also recorded” adds a separate entry of the source. Read-outs that look alike come from different tables or passages of the source.

Legend:
[1] = test system: Staphylococcus aureus ATCC 25923 (Reference, basal); experiment: MIC, broth microdilution (CLSI); assay type: cell-based; details: ATCC25923
[2] = test system: SA 1199 (Wild‐type, basal); experiment: MIC, broth microdilution (CLSI); assay type: cell-based; details: Staphylococcus aureus
[3] = test system: SA 1199‐B (norA overexpressing); experiment: microbe, parasite or virus in culture; assay type: cell-based, Staphylococcus aureus; details: from Table 1
[4] = Solution‐state stability test in MH‐II broth; assay type: physicochemical; details: 512–1 µg mL^−1, 37 °C for a day, centrifuged
Method: Before accessing the minimal inhibitory concentration (MIC), each phenazinium derivative was subjected to a solution‐state stability test. For this experiment, each derivative was solubilized in DMSO to achieve a primary stock solution (20 mg mL^−1). This stock was further diluted in MilliQ to achieve a working stock solution (10 mg mL^−1). […] The tubes were placed in an incubator at 37 °C for a day and later centrifuged at 25 000 rpm for 25 min.

[5] = Fluorescence intensity measurement of phenazinium derivatives; assay type: physicochemical; details: 1 µg mL^−1
Method: A stock solution of synthesized phenazinium compounds (10 mg mL^-1) was prepared in DMSO solvent. […] An aliquot (100 μL) of this working stock was then added to the black flat bottomed, half-area, 96-well microplates (CELLSTAR, Greiner Bio-One, France). The plate was then placed on a fluorescence spectrometer (Tecan, Infinite […], Lyon, France) and scanned for emission spectra (560-800 nm) at a constant excitation […].

[6] = In-vitro cytotoxicity test, Neutral Red uptake; assay type: cell-based, Human; details: human, HaCaT keratinocytes, 24 hours, read-out: Cell viability (% as compared to the negative control), replicates
Method: (§1) Method: The in-vitro cytotoxicity test assessed cell viability based on Neutral Red uptake, a dye that accumulates in lysosomes and decreases in response to membrane damage. HaCaT keratinocytes were cultured in DMEM with 10% calf serum and incubated at 37°C, 5% CO₂. Cells were seeded in 96-well plates, treated with eight concentrations of the 5a4, and incubated for 24 hours. After washing, cells were exposed to Neutral Red medium for 3 hours, followed by washing and destaining. Optical density (OD540) was measured using a fluorescence reader, and IC50 values were calculated using Phototox Version 2.0, comparing treated wells to untreated controls.^[10]

[7] = test system: HaCaT keratinocytes cells; experiment: In-vitro cytotoxicity test, Neutral Red uptake; assay type: cell-based, Human
Method: as §1

[8] = test system: HaCaT keratinocytes cells; experiment: Micronucleus assay; assay type: cell-based, Human
[9] = test system: Staphylococcus aureus efflux mutants and clinical strains
[10] = 0.025 µg/ml, with UVA/visible Irradiation
[11] = 0.05 µg/ml, with UVA/visible Irradiation
[12] = 0.1 µg/ml, with UVA/visible Irradiation
[13] = 0.25 µg/ml, with UVA/visible Irradiation

CCCCNc1ccc2nc3cc(NCCOC)c(N)cc3[n+](CCC)c2c1 [5a4]
MIC [1]: 2 µg/mL | MIC [2]: 2 µg/mL | MIC difference between NorA wild‐type, overexpressing and deleted mutants [3]: fourfold or greater difference | Solution state stability (concentration at which visible precipitation was observed) [4]: excellent solubility and stability; also recorded: Stable | fluorescence intensity (rank among derivatives) [5]: maximum fluorescence intensity | viability at 24 h, 0.00025 µg/ml ([6]; 0.00025 µg/ml): > 96% | viability at 24 h, 0.0005 µg/ml ([6]; 0.0005 µg/ml): 98.9% | viability at 24 h, 0.001 µg/ml ([6]; 0.001 µg/ml): 87.3% | viability at 24 h, 0.025 µg/ml ([6]; 0.025 µg/ml): 80% | viability at 24 h, 0.05 µg/ml ([6]; 0.05 µg/ml): 66.6% | viability at 24 h, 0.1 µg/ml ([6]; 0.1 µg/ml): 57.8% | viability at 24 h, 0.25 µg/ml ([6]; 0.25 µg/ml): 43.4% | viability at 24 h, 0.5 µg/ml ([6]; 0.5 µg/ml): 37.3% | viability at 24 h, 1 µg/ml ([6]; 1 µg/ml): 11.6% | viability at 24 h, 2.5 µg/ml ([6]; 2.5 µg/ml): ~7.91% | cytotoxicity on HaCaT (in words) [7]: dose‐dependent cytotoxicity | Cell viability (% as compared to the negative control), replicates ([7]; 0.00025 µg/ml, 24 hours): 98.73% and 100.16% and 98.52% | Cell viability (% as compared to the negative control), replicates ([7]; 0.0005 µg/ml, 24 hours): 98.86% and 96.05% | Cell viability (% as compared to the negative control), replicates ([7]; 0.001 µg/ml, 24 hours): 86.83% and 87.15% | Cell viability (% as compared to the negative control), replicates ([7]; 0.025 µg/ml, 24 hours): 80.96% and 90.16% | Cell viability (% as compared to the negative control), replicates ([7]; 0.05 µg/ml, 24 hours): 71.87% and 67.22% | Cell viability (% as compared to the negative control), replicates ([7]; 0.1 µg/ml, 24 hours): 60.91% and 61.94% | Cell viability (% as compared to the negative control), replicates ([7]; 0.25 µg/ml, 24 hours): 43.67% and 45.37% | Cell viability (% as compared to the negative control), replicates ([7]; 0.5 µg/ml, 24 hours): 36.42% and 39.37% | Cell viability (% as compared to the negative control), replicates ([7]; 1 µg/ml, 24 hours): 8.29% and 13.84% | Cell viability (% as compared to the negative control), replicates ([7]; 2.5 µg/ml, 24 hours): 7.17% and 8.13% | IC50 ([7]; Homo sapiens, HaCaT, Neutral Red uptake, 24 hours, read-out: IC50 (HaCaT cell viability)): 0.1 to 0.25 µg/mL | genotoxicity (in words) [8]: no clear genotoxicity | % PI (Proliferative Index) [8, 10]: 99.2% | MNC (micronucleated cells) [8, 10]: 11 ± 1.4 per 1,000 | % PI (Proliferative Index) ([8]; 0.025 µg/ml, without S9 mix): 99.8% | MNC (micronucleated cells) ([8]; 0.025 µg/ml, without S9 mix): 9 ± 1.4 per 1,000 | % PI (Proliferative Index) [8, 11]: 94.6% | MNC (micronucleated cells) [8, 11]: 9 ± 2.1 per 1,000 | % PI (Proliferative Index) ([8]; 0.05 µg/ml, without S9 mix): 88.2% | MNC (micronucleated cells) ([8]; 0.05 µg/ml, without S9 mix): 8.5 ± 0.7 per 1,000 | % PI (Proliferative Index) [8, 12]: 92.1% | MNC (micronucleated cells) [8, 12]: 9.5 ± 0.7 per 1,000 | % PI (Proliferative Index) ([8]; 0.1 µg/ml, without S9 mix): 78.5% | MNC (micronucleated cells) ([8]; 0.1 µg/ml, without S9 mix): 11 ± 1.4 per 1,000 | % PI (Proliferative Index) [8, 13]: 89.2% | MNC (micronucleated cells) [8, 13]: 11.5 ± 2.1 per 1,000 | % PI (Proliferative Index) ([8]; 0.25 µg/ml, without S9 mix): 56.1% | MNC (micronucleated cells) ([8]; 0.25 µg/ml, without S9 mix): 10 ± 1.4 per 1,000 | % PI (Proliferative Index) ([8]; 0.5 µg/ml, with UVA/visible Irradiation): TOXIC | % PI (Proliferative Index) ([8]; 0.5 µg/ml, without S9 mix): TOXIC | MNC (micronucleated cells) ([8]; 0.5 µg/ml, without S9 mix): TOXIC | phototoxicity (in words) ([8]; UVA/visible light exposure): Slight phototoxicity | Efflux detection method 5a4 ([9]; strain ATCC25923): Negative | Efflux detection method 5a4 ([9]; strain ATCC25923_EtBr): Positive | Efflux detection method 5a4 ([9]; strain BIOS-H1): Negative | Efflux detection method 5a4 ([9]; strain BIOS-H2): Negative | Efflux detection method 5a4 ([9]; strain BIOS-H3): Negative | Efflux detection method 5a4 ([9]; strain BIOS-H5): Negative | Efflux detection method 5a4 ([9]; strain BIOS-H6): Negative | Efflux detection method 5a4 ([9]; strain BIOS-H12): Negative | Efflux detection method 5a4 ([9]; strain BIOS-H13): Negative | Efflux detection method 5a4 ([9]; strain BIOS-H17): Negative | Efflux detection method 5a4 ([9]; strain BIOS-H20): Negative | Efflux detection method 5a4 ([9]; strain BIOS-H21): Negative | Efflux detection method 5a4 ([9]; strain BIOS-H22): Negative | Efflux detection method 5a4 ([9]; strain BIOS-H25): Negative | Efflux detection method 5a4 ([9]; strain BIOS-H28): Negative | Efflux detection method 5a4 ([9]; strain BIOS-H29): Negative | Efflux detection method 5a4 ([9]; strain BIOS-H30): Negative | Efflux detection method 5a4 ([9]; strain BIOS-H32): Negative | Efflux detection method 5a4 ([9]; strain BIOS-V21): Negative | Efflux detection method 5a4 ([9]; strain BIOS-V31): Negative | Efflux detection method 5a4 ([9]; strain BIOS-V60): Negative | Efflux detection method 5a4 ([9]; strain BIOS-V61): Negative | Efflux detection method 5a4 ([9]; strain BIOS-V62): Negative | Efflux detection method 5a4 ([9]; strain BIOS-V74): Negative | Efflux detection method 5a4 ([9]; strain BIOS-V75): Negative | Efflux detection method 5a4 ([9]; strain BIOS-V85): Negative | Efflux detection method 5a4 ([9]; strain BIOS-V118): Negative | Efflux detection method 5a4 ([9]; strain BIOS-V128): Negative | Efflux detection method 5a4 ([9]; strain BIOS-V147): Negative | Efflux detection method 5a4 ([9]; strain BIOS-V151): Negative | Efflux detection method 5a4 ([9]; strain BIOS-V156): Negative | Efflux detection method 5a4 ([9]; strain BIOS-V157): Negative | Efflux detection method 5a4 ([9]; strain BIOS-V158): Negative | Efflux detection method 5a4 ([9]; strain BIOS-V203): Negative | Efflux detection method 5a4 ([9]; strain BIOS-V245): Negative | Efflux detection method 5a4 ([9]; strain BIOS-V250): Negative | Efflux detection method 5a4 ([9]; strain BIOS-V257): Negative | Efflux detection method 5a4 ([9]; strain BIOS-V279): Negative | Efflux detection method 5a4 ([9]; strain BIOS-V295): Negative | Efflux detection method 5a4 ([9]; strain SA-1199): Negative | Efflux detection method 5a4 ([9]; strain SA-1199B): Positive | Efflux detection method 5a4 ([9]; strain SA-K1712): Negative | Efflux detection method 5a4 ([9]; strain SA-K1748): Positive | Efflux detection method 5a4 ([9]; strain SA-K1758): Negative | Efflux detection method 5a4 ([9]; strain SM 1): Positive | Efflux detection method 5a4 ([9]; strain SM 2): Negative | Efflux detection method 5a4 ([9]; strain SM 3): Negative | Efflux detection method 5a4 ([9]; strain SM 4): Negative | Efflux detection method 5a4 ([9]; strain SM 5): Negative | Efflux detection method 5a4 ([9]; strain SM 6): Negative | Efflux detection method 5a4 ([9]; strain SM 7): Negative | Efflux detection method 5a4 ([9]; strain SM 8): Negative | Efflux detection method 5a4 (S. epidermidis strains; […]): Negative | Efflux detection method 5a4 (S. epidermidis strains; strain ATCC12228): Negative | Efflux detection method 5a4 (S. epidermidis strains; strain ATCC12228_EtBr): Positive | Efflux detection method 5a4 (S. epidermidis strains; strain BIOS-V24): Negative | Efflux detection method 5a4 (S. epidermidis strains; strain BIOS-V282): Positive
